From US12502434B2, “Compound comprising EZH2 inhibitor and E3 ligase binder and pharmaceutical composition for preventing or treating EZH2-associated disease comprising same as active ingredient” (DAEGU-GYEONGBUK MEDICAL INNOVATION FOUNDATION, priority 2019, dated 2025)
Read-outs that look alike come from different tables or passages of the source.

Biological target: T1, EZH2 protein in LS174T cells (Homo sapiens, UniProt Q15910)
T1 construct: endogenous in cells; host or cells: LS174T
Experiment: Proteolytic effect in colorectal cancer cells (Western blotting)
Format: cell-based
Protocol: After 72 hours of the treatment, the cells were collected and lysed using RIPA buffer (50 mM Tris, pH 7.5, 150 mM NaCl, 1% Triton X-100, 0.1% SDS, […], 0.5% deoxycholate, and protease inhibitor cocktail), followed by sonication (30 sec on/30 sec off, 5 cycles) to prepare a cell lysate.

[1] = EZH2 protein, LS174T cells, 1 μM, 72 hours
[2] = EZH2 protein, LS174T cells, 1 uM, 72 hours, Western blotting

T1 sequence (Q15910 whole entry): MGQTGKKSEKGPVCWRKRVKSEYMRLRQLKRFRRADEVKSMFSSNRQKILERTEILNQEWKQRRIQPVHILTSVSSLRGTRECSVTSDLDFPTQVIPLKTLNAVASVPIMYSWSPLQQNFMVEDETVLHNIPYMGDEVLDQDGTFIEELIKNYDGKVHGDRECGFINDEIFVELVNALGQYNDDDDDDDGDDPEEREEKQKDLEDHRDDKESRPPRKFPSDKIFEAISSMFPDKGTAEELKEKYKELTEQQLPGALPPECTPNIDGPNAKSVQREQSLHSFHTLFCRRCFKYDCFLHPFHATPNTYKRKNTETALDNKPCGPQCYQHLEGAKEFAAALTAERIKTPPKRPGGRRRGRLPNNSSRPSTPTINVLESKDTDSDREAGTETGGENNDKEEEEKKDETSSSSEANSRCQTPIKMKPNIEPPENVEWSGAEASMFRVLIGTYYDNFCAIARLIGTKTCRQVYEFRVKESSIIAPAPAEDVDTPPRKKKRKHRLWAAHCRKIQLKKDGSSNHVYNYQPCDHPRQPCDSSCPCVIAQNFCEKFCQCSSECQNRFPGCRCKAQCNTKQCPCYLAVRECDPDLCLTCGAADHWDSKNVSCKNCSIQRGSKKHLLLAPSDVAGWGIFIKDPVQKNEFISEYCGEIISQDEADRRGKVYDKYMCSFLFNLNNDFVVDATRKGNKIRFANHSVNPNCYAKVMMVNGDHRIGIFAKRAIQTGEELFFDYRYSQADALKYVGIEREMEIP
T1 sequence (O75530 whole entry partner): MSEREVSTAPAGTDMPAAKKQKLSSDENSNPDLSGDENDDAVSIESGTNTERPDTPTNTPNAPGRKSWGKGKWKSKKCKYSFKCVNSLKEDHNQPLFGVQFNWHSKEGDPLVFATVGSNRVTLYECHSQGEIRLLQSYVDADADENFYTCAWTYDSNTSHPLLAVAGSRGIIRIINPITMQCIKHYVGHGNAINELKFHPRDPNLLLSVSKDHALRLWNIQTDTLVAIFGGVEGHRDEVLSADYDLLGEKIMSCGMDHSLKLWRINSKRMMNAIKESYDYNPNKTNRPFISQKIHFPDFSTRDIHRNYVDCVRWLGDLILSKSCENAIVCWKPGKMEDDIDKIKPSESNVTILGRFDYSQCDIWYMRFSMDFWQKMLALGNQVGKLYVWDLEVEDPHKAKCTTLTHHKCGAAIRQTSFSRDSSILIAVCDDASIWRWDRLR
T1 sequence (Q15022 whole entry partner): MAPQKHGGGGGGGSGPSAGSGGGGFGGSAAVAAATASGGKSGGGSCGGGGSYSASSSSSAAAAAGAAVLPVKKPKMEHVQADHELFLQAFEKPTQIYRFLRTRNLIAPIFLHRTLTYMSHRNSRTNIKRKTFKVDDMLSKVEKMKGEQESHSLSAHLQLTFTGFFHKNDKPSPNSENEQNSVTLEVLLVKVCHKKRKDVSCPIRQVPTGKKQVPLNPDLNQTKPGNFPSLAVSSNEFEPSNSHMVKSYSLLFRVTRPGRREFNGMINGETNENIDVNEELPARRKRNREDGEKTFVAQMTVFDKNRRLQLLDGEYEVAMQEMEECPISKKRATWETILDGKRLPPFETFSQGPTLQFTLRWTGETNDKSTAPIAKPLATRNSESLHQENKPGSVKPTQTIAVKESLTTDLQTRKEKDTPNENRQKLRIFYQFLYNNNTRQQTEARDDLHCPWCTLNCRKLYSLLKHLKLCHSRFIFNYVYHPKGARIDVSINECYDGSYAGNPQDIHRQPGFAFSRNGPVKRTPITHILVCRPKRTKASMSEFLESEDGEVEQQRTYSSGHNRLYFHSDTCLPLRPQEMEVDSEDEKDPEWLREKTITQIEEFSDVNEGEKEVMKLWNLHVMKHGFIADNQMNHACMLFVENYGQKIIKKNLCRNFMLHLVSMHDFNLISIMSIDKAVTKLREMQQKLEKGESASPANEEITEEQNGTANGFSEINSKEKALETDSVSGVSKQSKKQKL

CCN(c1cc(-c2ccc(CN3CCN(CC(=O)NCCCCCCNc4cccc5c4C(=O)N(C4CCC(=O)NC4=O)C5=O)CC3)cc2)cc(C(=O)NCc2c(C)cc(C)[nH]c2=O)c1C)C1CCOCC1 (stereo not shown) [Example 6, N-((4,6-dimethyl-2-oxo-1,2-dihydropyridine-3-yl)methyl)-4′-((4-(2-((6-((2-(2,6-dioxopiperidine-3-yl)-1,3-dioxoisoindoline-4-yl)amino)hexyl)amino)-2-oxoethyl)piperazine-1-yl)methyl)-5-(ethyl(tetrahydro-2H-pyran-4-yl)amino)-4-methyl-[1,1′-biphenyl]-3-carboxamide]
Grade (percent value of the protein degradation when treated with 1 μM) [1]: B (50-75%) | %, degradation at 1 uM [2]: 61.64%

CCN(c1cc(-c2ccc(CN3CCN(CC(=O)NCCCCCCOc4cccc5c4C(=O)N(C4CCC(=O)NC4=O)C5=O)CC3)cc2)cc(C(=O)NCc2c(C)cc(C)[nH]c2=O)c1C)C1CCOCC1 (stereo not shown) [Example 8, N-((4,6-dimethyl-2-oxo-1,2-dihydropyridine-3-yl)methyl)-4′-((4-(2-((6-((2-(2,6-dioxopiperidine-3-yl)-1,3-dioxoisoindoline-4-yl)oxy)hexyl)amino)-2-oxoethyl)piperazine-1-yl)methyl)-5-(ethyl(tetrahydro-2H-pyran-4-yl)amino)-4-methyl-[1,1′-biphenyl]-3-carboxamide]
Grade (percent value of the protein degradation when treated with 1 μM) [1]: D (<25%) | %, degradation at 1 uM [2]: 2.91%

CCN(c1cc(-c2ccc(CN3CCN(CC(=O)NCCCCCOCCCOCC(=O)Nc4cccc5c4C(=O)N(C4CCC(=O)NC4=O)C5=O)CC3)cc2)cc(C(=O)NCc2c(C)cc(C)[nH]c2=O)c1C)C1CCOCC1 (stereo not shown) [Example 28, N-((4,6-dimethyl-2-oxo-1,2-dihydropyridine-3-yl)methyl)-4′-((4-(2-((5-(3-(2-((2-(2,6-dioxopiperidine-3-yl)-1,3-dioxoisoindoline-4-yl)amino)-2-oxoethoxy)propoxy)pentyl)amino)-2-oxoethyl)piperazine-1-yl)methyl)-5-(ethyl(tetrahydro-2H-pyran-4-yl)amino)-4-methyl-[1,1′-biphenyl]-3-carboxamide]
Grade (percent value of the protein degradation when treated with 1 μM) [1]: D (<25%) | %, degradation at 1 uM [2]: 0%

CCN(c1cc(-c2ccc(CN3CCN(CCNCCCCCCNc4cccc5c4C(=O)N(C4CCC(=O)NC4=O)C5=O)CC3)cc2)cc(C(=O)NCc2c(C)cc(C)[nH]c2=O)c1C)C1CCOCC1 (stereo not shown) [Example 21, N-((4,6-dimethyl-2-oxo-1,2-dihydropyridine-3-yl)methyl)-4′-((4-(2-((6-((2-(2,6-dioxopiperidine-3-yl)-1,3-dioxoisoindoline-4-yl)amino)hexyl)amino)ethyl)piperazine-1-yl)methyl)-5-(ethyl(tetrahydro-2H-pyran-4-yl)amino)-4-methyl-[1,1′-biphenyl]-3-carboxamide]
Grade (percent value of the protein degradation when treated with 1 μM) [1]: A (>75%) | %, degradation at 1 uM [2]: 83.09% | EZH2 proteolytic effect by Western blotting (figure, in words) (FIGS. 1 to 5): confirming the EZH2 proteolytic effect | effect of degrading EZH2 protein when treated to colorectal cancer cells (in words) (LS174T cells): excellent effects

CCN(c1cc(-c2ccc(CN3CCN(CC(=O)NCCCCCCN[C@H](C(=O)N4C[C@H](O)C[C@H]4C(=O)NCc4ccc(-c5scnc5C)cc4)C(C)(C)C)CC3)cc2)cc(C(=O)NCc2c(C)cc(C)[nH]c2=O)c1C)C1CCOCC1 [Example 38, (2S,4R)-1-((S)-2-((6-(2-(4-((3′-(((4,6-dimethyl-2-oxo-1,2-dihydropyridine-3-yl)methyl)carbamoyl)-5′-(ethyl(tetrahydro-2H-pyran-4-yl)amino)-4′-methyl-[1,1′-biphenyl]-4-yl)methyl)piperazine-1-yl)acetamido)hexyl)amino)-3,3-dimethylbutanoyl)-4-hydroxy-N-(4-(4-methylthiazole-5-yl)benzyl)pyrrolidine-2-carboxamide]
Grade (percent value of the protein degradation when treated with 1 μM) [1]: D (<25%) | %, degradation at 1 uM [2]: 9.97%

CCN(c1cc(-c2ccc(CN3CCN(CC(=O)NCCCCCCNc4cccc5c4CN(C4CCC(=O)NC4=O)C5=O)CC3)cc2)cc(C(=O)NCc2c(C)cc(C)[nH]c2=O)c1C)C1CCOCC1 (stereo not shown) [Example 20, N-((4,6-dimethyl-2-oxo-1,2-dihydropyridine-3-yl)methyl)-4′-((4-(2-((6-((2-(2,6-dioxopiperidine-3-yl)-1-oxoisoindoline-4-yl)amino)hexyl)amino)-2-oxoethyl)piperazine-1-yl)methyl)-5-(ethyl(tetrahydro-2H-pyran-4-yl)amino)-4-methyl[1,1′-biphenyl]-3-carboxamide]
%, degradation at 1 uM: 58.73% | Grade (percent value of the protein degradation when treated with 1 μM): B (key: A: >75%; B: 50-75%; C: 25-50%; D: <25%)

CCN(c1cc(-c2ccc(CN3CCN(CC(=O)NCCOCCCNc4cccc5c4C(=O)N(C4CCC(=O)NC4=O)C5=O)CC3)cc2)cc(C(=O)NCc2c(C)cc(C)[nH]c2=O)c1C)C1CCOCC1 (stereo not shown) [Example 16, N-((4,6-dimethyl-2-oxo-1,2-dihydropyridine-3-yl)methyl)-4′-((4-(2-((2-(3-((2-(2,6-dioxopiperidine-3-yl)-1,3-dioxoisoindoline-4-yl)amino)propoxy)ethyl)amino)-2-oxoethyl)piperazine-1-yl)methyl)-5-(ethyl(tetrahydro-2H-pyran-4-yl)amino)-4-methyl-[1,1′-biphenyl]-3-carboxamide]
%, degradation at 1 uM: 5.51% | Grade (percent value of the protein degradation when treated with 1 μM): D (key: A: >75%; B: 50-75%; C: 25-50%; D: <25%)

CCN(c1cc(-c2ccc(CN3CCN(CC(=O)N4CCC5(CCN(CCCCNc6cccc7c6C(=O)N(C6CCC(=O)NC6=O)C7=O)C5)C4)CC3)cc2)cc(C(=O)NCc2c(C)cc(C)[nH]c2=O)c1C)C1CCOCC1 (stereo not shown) [Example 34, N-((4,6-dimethyl-2-oxo-1,2-dihydropyridine-3-yl)methyl)-4′-((4-(2-(7-(4-((2-(2,6-dioxopiperidine-3-yl)-1,3-dioxoisoindoline-4-yl)amino)butyl)-2,7-diazaspiro[4.4]nonane-2-yl)-2-oxoethyl)piperazine-1-yl)methyl)-5-(ethyl(tetrahydro-2H-pyran-4-yl)amino)-4-methyl-[1,1′-biphenyl]-3-carboxamide]
Grade (percent value of the protein degradation when treated with 1 μM) [1]: D (<25%) | %, degradation at 1 uM [2]: 0%

CCN(c1cc(-c2ccc(CN3CCN(Cc4cn(CCCNc5cccc6c5C(=O)N(C5CCC(=O)NC5=O)C6=O)nn4)CC3)cc2)cc(C(=O)NCc2c(C)cc(C)[nH]c2=O)c1C)C1CCOCC1 (stereo not shown) [Example 23, N-((4,6-dimethyl-2-oxo-1,2-dihydropyridine-3-yl)methyl)-4′-((4-((1-(3-((2-(2,6-dioxopiperidine-3-yl)-1,3-dioxoisoindoline-4-yl)amino)propyl)-1H-1,2,3-triazole-4-yl)methyl)piperazine-1-yl)methyl)-5-(ethyl(tetrahydro-2H-pyran-4-yl)amino)-4-methyl-[1,1′-biphenyl]-3-carboxamide]
Grade (percent value of the protein degradation when treated with 1 μM) [1]: D (<25%) | %, degradation at 1 uM [2]: 1.52%

CCN(c1cc(-c2ccc(CN3CCN(CCCCCCCOc4cccc5c4C(=O)N(C4CCC(=O)NC4=O)C5=O)CC3)cc2)cc(C(=O)NCc2c(C)cc(C)[nH]c2=O)c1C)C1CCOCC1 (stereo not shown) [Example 10, N-((4,6-dimethyl-2-oxo-1,2-dihydropyridine-3-yl)methyl)-4′-((4-(7-((2-(2,6-dioxopiperidine-3-yl)-1,3-dioxoisoindoline-4-yl)oxy)heptyl)piperazine-1-yl)methyl)-5-(ethyl(tetrahydro-2H-pyran-4-yl)amino)-4-methyl-[1,1′-biphenyl]-3-carboxamide]
Grade (percent value of the protein degradation when treated with 1 μM) [1]: D (<25%) | %, degradation at 1 uM [2]: 0%

CCN(c1cc(-c2ccc(CN3CCN(CCCCCCCNc4cccc5c4C(=O)N(C4CCC(=O)NC4=O)C5=O)CC3)cc2)cc(C(=O)NCc2c(C)cc(C)[nH]c2=O)c1C)C1CCOCC1 (stereo not shown) [Example 11, N-((4,6-dimethyl-2-oxo-1,2-dihydropyridine-3-yl)methyl)-4′-((4-(7-((2-(2,6-dioxopiperidine-3-yl)-1,3-dioxoisoindoline-4-yl)amino)heptyl)piperazine-1-yl)methyl)-5-(ethyl(tetrahydro-2H-pyran-4-yl)amino)-4-methyl-[1,1′-biphenyl]-3-carboxamide]
Grade (percent value of the protein degradation when treated with 1 μM) [1]: D (<25%) | %, degradation at 1 uM [2]: 12.87%

CCN(c1cc(-c2ccc(CN3CCN(CC(=O)N4CC5(CN(CCNc6cccc7c6C(=O)N(C6CCC(=O)NC6=O)C7=O)C5)C4)CC3)cc2)cc(C(=O)NCc2c(C)cc(C)[nH]c2=O)c1C)C1CCOCC1 (stereo not shown) [Example 36, N-((4,6-dimethyl-2-oxo-1,2-dihydropyridine-3-yl)methyl)-4′-((4-(2-(6-(2-((2-(2,6-dioxopiperidine-3-yl)-1,3-dioxoisoindoline-4-yl)amino)ethyl)-2,6-diazaspiro[3.3]heptane-2-yl)-2-oxoethyl)piperazine-1-yl)methyl)-5-(ethyl(tetrahydro-2H-pyran-4-yl)amino)-4-methyl-[1,1′-biphenyl]-3-carboxamide]
Grade (percent value of the protein degradation when treated with 1 μM) [1]: D (<25%) | %, degradation at 1 uM [2]: 0%

CCN(c1cc(-c2ccc(CN3CCN(CCCCCNc4cccc5c4C(=O)N(C4CCC(=O)NC4=O)C5=O)CC3)cc2)cc(C(=O)NCc2c(C)cc(C)[nH]c2=O)c1C)C1CCOCC1 (stereo not shown) [Example 2, N-((4,6-dimethyl-2-oxo-1,2-dihydropyridine-3-yl)methyl)-4′-((4-(5-((2-(2,6-dioxopiperidine-3-yl)-1,3-dioxoisoindoline-4-yl)amino)pentyl)piperazine-1-yl)methyl)-5-(ethyl(tetrahydro-2H-pyran-4-yl)amino)-4-methyl-[1,1′-biphenyl]-3-carboxamide]
Grade (percent value of the protein degradation when treated with 1 μM) [1]: D (<25%) | %, degradation at 1 uM [2]: 18.10%
